Assay results reported in patent publication US20090192191A1, “Substituted hydroxamic acid derivatives as tnf inhibitors” (priority 2004, published 2009).

Each molecule was assayed on TNF-α (assay: In vitro screening for TNF-α inhibitory activity using rat whole blood assay). Details: 10 μM test substance, LPS 1 μg/mL, 5 h at 37° C, plasma TNF-α by ELISA.
Format: cell-based
Protocol: In Vitro Screening for TNF-α Inhibitory Activity Using Rat Whole Blood Assay:
Rats were deeply anaesthetized with anesthetic ether and blood (6-8 mL) was collected through retro-orbital plexus in a tube containing heparin (100 IU/mL). Five hundred microlitre blood sample was incubated with different concentrations of the test substances for 15 min at 37° C. LPS (1 μg/mL, final concentration) was subsequently added and the mixture was further incubated for 5 h at 37° C. The reaction was terminated by placing the samples over ice for 15 min. The samples were then centrifuged at 1000 g for 15 min at 4° C. The plasma was separated and stored in deep freezer until the assay. TNF-α levels were estimated in the treated plasma samples by ELISA method using commercially available kit (R&D System, Inc., USA). The inhibition of the TNF-α[…] production may be taken as an indicator of inhibition of TACE activity.
“2-{3-Amino-2-oxo-3-[4-(2-p-tolylsuinolin-4-ylmethoxy)-phenyl]-pyrrolidin-1-yl}-4-methyl-pentanoic acid hydroxyamide [Compound 8]” was tested, and the “% of TNF-α inhibition at 10 μM dose” value was 84%. In the case of “2-3-Amino-3-{4-[2-(4-methoxy)phenyl)-quinolin-4-ylmethoxy]-phenyl}-2-oxo-pyrrolidin-1-yl)-4-methyl-pentanoic acid hydroxyamide [Compound 14]”, the “% of TNF-α inhibition at 10 μM dose” value is reported as 85%. With `COc1cccc(-c2cc(COc3ccc(C4(N)CCN(C(CC(C)C)C(=O)NO)C4=O)cc3)c3ccccc3n2)c1` (centres unmarked) [Compound 27] the “% of TNF-α inhibition at 10 μM dose” value was 79%. “2-{3-Amino-2-oxo-3-[4-2-p-tolyl-quinolin-4-ylmethoxy)-phenyl]-pyrrolidin-1-yl}-N-hydroxy-propionamide [Compound 9]” was tested, and the “% of TNF-α inhibition at 10 μM dose” value was 82%. With `CC(C)CC(C(=O)NO)N1CCC(N)(c2ccc(OCc3cc(COC(C)C)nc4ccccc34)cc2)C1=O` (centres unmarked) [Compound 5] the “% of TNF-α inhibition at 10 μM dose” value was 94%.

Same assay, conditions: 10 μM test substance, LPS 1 μg/mL, 5 h at 37° C, plasma TNF-α by ELISA, read-out: % of TNF-α inhibition at 10 μM dose
`COc1ccc(-c2cc(COc3ccc([C@]4(N)CCN([C@H](C)C(=O)NO)C4=O)cc3)c3ccccc3n2)cc1` (stereo in doubt) [Compound 15, 2-(3-Amino-3-{4-[2-(4-methoxy-phenyl}-quinolin-4-ylmethoxy]-phenyl)-2-oxo-pyrrolidin-1-yl)-N-hydroxy-propionamide] showed an inhibition at 10 µM of 84%. Molecule `COCc1cc(COc2ccc([C@]3(N)CCN([C@H](CC(C)C)C(=O)NO)C3=O)cc2)c2ccccc2n1` [Compound 2] has an inhibition at 10 µM of 92%. In the case of `COCCc1cc(COc2ccc(C3(N)CCN(C(CC(C)C)C(=O)NO)C3=O)cc2)c2ccccc2n1` (centres unmarked) [Compound 7, 2-(3-Amino-3-{4-[2-(2-methoxy-ethyl)quinolin-4-ylmethoxy]-phenyl}-2-oxo-pyrrolidin-1-yl)-4-methyl-pentanoic acid hydroxyamide], the inhibition at 10 µM is reported as 85%.
